# In patent publication US20190270733A1, “Quinoline and Isoquinoline Based HDAC Inhibitors and Methods of Use Thereof” (Reaction Biology Corp., priority 2018, published 2019):
# Where “and” joins values, the source holds several entries; their conditions need not be identical. Identical values can stand only once. Like-named read-outs stand apart in the source and are kept apart here.
# Assay: Mouse plasma PK (IV and PO dosing)
# Type: in vivo, Male C57 Bl/6J mice
# Conditions: for AUC(0-inf): read-out: AUCINF—obs (converted); for MRT inf: read-out: MRTINF—obs
# Procedure: In vivo PK (pharmacokinetics) studies were run at Scripps Florida DMPK Core facility. Mouse plasma PK data was obtained using the compound of Example 5 (N-(2-amino-5-(thiophen-2-yl)phenyl)-2-oxo-1,2,3,4-tetrahydroquinoline-6-carboxamide)
# Dose: 1 mg/kg intravenous (IV), 7 mg/kg oral dosing (PO)
# Formulation: 0.1 mg/mL (IV) and 1 mg/mL (PO) solution in 10/10/80 DMSO/Tween80/Water
# Mice Info: Male C57 Bl/6J
# Plasma PK were evaluated in mice after administration of compound Example 5. […] (Tmax), maximal concentration (Cmax), observed clearance (Cl_obs), mean residential time (MRT), and observed volume distribution (Vss_obs) were also quantified (Tables 2 and 3).
# [1] = IV 1 mg/kg, mouse plasma, average
# [2] = IV 1 mg/kg, mouse plasma, individual mice, 1 mg/kg
# [3] = IV administration, mouse plasma
# [4] = PO 7 mg/kg, mouse plasma, average
# [5] = PO 7 mg/kg, mouse plasma, individual mice, 7 mg/kg
# [6] = male, C57 Bl/6J, mouse, plasma, iv, 1 mg/kg, IV 1 mg/kg, mouse plasma, average
# [7] = male, C57 Bl/6J, mouse, plasma, iv, 1 mg/kg, IV 1 mg/kg, mouse plasma, individual mice
# [8] = male, C57 Bl/6J, mouse, plasma, po, 7 mg/kg, PO 7 mg/kg, mouse plasma, average
# [9] = male, C57 Bl/6J, mouse, plasma, po, 7 mg/kg, PO 7 mg/kg, mouse plasma, individual mice
structure (smiles),measurement,setting,value
"Nc1ccc(-c2cccs2)cc1NC(=O)c1ccc2c(c1)CCC(=O)N2 [Example 5, N-(2-amino-5-(thiophen-2-yl)phenyl)-2-oxo-1,2,3,4-tetrahydroquinoline-6-carboxamide]",AUC (% Extrap),[1],1.42%
same,Cl_obs,[1],5.33 mL/min/kg
same,Vss_obs,[1],0.40 L/kg
same,AUC (% Extrap),[2],1.31% and 1.23% and 1.71%
same,AUCINF—obs,[2],184402 ng·min/mL and 207009 ng·min/mL
same,AUClast,[2],8.36 μM · hr and 9.34 μM · hr and 182140 min * ng/mL and 203467 min * ng/mL
same,Cl_obs,[2],5.75 mL/min/kg and 5.42 mL/min/kg and 4.83 mL/min/kg
same,Cmax,[2],2480 ng/mL and 4540 ng/mL and 5820 ng/mL
same,MRTINF—obs,[2],1.19 h and 1.14 h
same,T1/2,[2],1.52 h and 1.59 h
same,Tmax,[2],0.08 hr (2×) and 0.25 hr
same,Vss_obs,[2],0.48 L/kg and 0.39 L/kg and 0.33 L/kg
same,Cmax,"IV 1 mg/kg, mouse plasma, individual mice, 1 mg/kg, read-out: Cmax",6.83 µM and 12.5 µM and 16 µM
same,clearance (in words),[3],low clearance
same,volume (in words),[3],low volume
same,AUC (% Extrap),[4],9.95%
same,Cl_obs,[4],25.89 mL/min/kg
same,AUC (% Extrap),[5],6.21% and 14.68% and 8.96%
same,AUCINF—obs,[5],227793 ng·min/mL and 250553 ng·min/mL
same,AUClast,[5],8.92 μM · hr and 10.47 μM · hr and 194363 min * ng/mL and 228113 min * ng/mL
same,Cl_obs,[5],18.99 mL/min/kg and 30.73 mL/min/kg and 27.94 mL/min/kg
same,Cmax,[5],1590 ng/mL and 1620 ng/mL
same,T1/2,[5],3.30 h and 2.62 h
same,Tmax,[5],1.00 hr and 0.25 hr (2×)
same,Cmax,"PO 7 mg/kg, mouse plasma, individual mice, 7 mg/kg, read-out: Cmax",4.38 µM and 4.46 µM
same,AUC,"male, C57 Bl/6J, 1 mg/kg, IV administration, mouse plasma, read-out: AUC",8.5 µM·h
same,AUC,"male, C57 Bl/6J, 7 mg/kg, PO dosing, mouse plasma, read-out: AUC (area under the curve)",11 to 12 µM·h
same,AUC(0-t),[6],8.53 µM·h and 3100 ng·h/mL
same,AUC(0-inf),[6],3140 ng·h/mL
same,Cmax,"male, C57 Bl/6J, mouse, plasma, iv, 1 mg/kg, IV 1 mg/kg, mouse plasma, average, read-out: Cmax",4280 ng/mL and 11.8 µM
same,MRT inf,[6],1.24 h
same,half-life,"male, C57 Bl/6J, mouse, plasma, iv, 1 mg/kg, IV 1 mg/kg, mouse plasma, average, read-out: T1/2 (converted)",1.48 h
same,Tmax,"male, C57 Bl/6J, mouse, plasma, iv, 1 mg/kg, IV 1 mg/kg, mouse plasma, average, read-out: Tmax",0.14 h
same,AUC(0-t),[7],7.88 µM·h and 2860 ng·h/mL
same,AUC(0-inf),[7],2900 ng·h/mL
same,MRT inf,[7],1.39 h
same,half-life,"male, C57 Bl/6J, mouse, plasma, iv, 1 mg/kg, IV 1 mg/kg, mouse plasma, individual mice, read-out: T1/2 (converted)",1.34 h
same,half-life,"male, C57 Bl/6J, mouse, plasma, iv, 1 mg/kg, IV administration, mouse plasma, read-out: half-life (T1/2) (converted)",1.5 h
same,AUC(0-t),[8],11.8 µM·h and 4270 ng·h/mL
same,AUC(0-inf),[8],4710 ng·h/mL
same,Cmax,"male, C57 Bl/6J, mouse, plasma, po, 7 mg/kg, PO 7 mg/kg, mouse plasma, average, read-out: Cmax",1960 ng/mL and 5.4 µM
same,half-life,"male, C57 Bl/6J, mouse, plasma, po, 7 mg/kg, PO 7 mg/kg, mouse plasma, average, read-out: T1/2 (converted)",2.66 h
same,Tmax,"male, C57 Bl/6J, mouse, plasma, po, 7 mg/kg, PO 7 mg/kg, mouse plasma, average, read-out: Tmax",0.5 h
same,AUC(0-t),[9],15.9 µM·h and 5760 ng·h/mL
same,AUC(0-inf),[9],6140 ng·h/mL
same,Cmax,"male, C57 Bl/6J, mouse, plasma, po, 7 mg/kg, PO 7 mg/kg, mouse plasma, individual mice, read-out: Cmax",2670 ng/mL and 7.36 µM
same,half-life,"male, C57 Bl/6J, mouse, plasma, po, 7 mg/kg, PO 7 mg/kg, mouse plasma, individual mice, read-out: T1/2 (converted)",2.05 h
same,half-life,"male, C57 Bl/6J, mouse, plasma, po, 7 mg/kg, PO dosing, mouse plasma, read-out: half-life (converted)",2.7 h
same,bioavailability,"male, C57 Bl/6J, plasma, PO 7 mg/kg vs IV 1 mg/kg, mouse, read-out: % F (bioavailability)",20%
